Source: ChEMBL document CHEMBL1201862, “PubChem BioAssay data set” (2004)
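Each compound was tested at five concentrations against cells in 96-well plates for 48 hours. GI50 = concentration required for 50% inhibition of growth.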 Active and inactive are the calls of the source. Rule as the data show it: active = GI50 up to about 1.1 µM and inactive = higher.

Key:
Assay in all cases: DTP human tumour cell line panel, 48 h
786-0 = tested on: 786-0
A498 = tested on: A498
A549 = tested on: A549
ACHN = tested on: ACHN
BT-549 = tested on: BT-549
CAKI-1 = tested on: CAKI-1
COLO 205 = tested on: COLO 205
DU-145 = tested on: DU-145
EKVX = tested on: EKVX
HCC 2998 = tested on: HCC 2998
HCT-116 = tested on: HCT-116
HCT-15 = tested on: HCT-15
HOP-62 = tested on: HOP-62
HOP-92 = tested on: HOP-92
HT-29 = tested on: HT-29
Hs-578T = tested on: Hs-578T
IGROV-1 = tested on: IGROV-1
K562 = tested on: K562
KM12 = tested on: KM12
LOX IMVI = tested on: LOX IMVI
M14 = tested on: M14
MCF7 = tested on: MCF7
MDA-MB-231 = tested on: MDA-MB-231
MDA-MB-435 = tested on: MDA-MB-435
MDA-N = tested on: MDA-N
MOLT-4 = tested on: MOLT-4
Malme-3M = tested on: Malme-3M
NCI-H226 = tested on: NCI-H226
NCI-H23 = tested on: NCI-H23
NCI-H460 = tested on: NCI-H460
NCI-H522 = tested on: NCI-H522
NCI/ADR-RES = tested on: NCI/ADR-RES
OVCAR-3 = tested on: OVCAR-3
OVCAR-4 = tested on: OVCAR-4
OVCAR-5 = tested on: OVCAR-5
OVCAR-8 = tested on: OVCAR-8
PC-3 = tested on: PC-3
RPMI-8226 = tested on: RPMI-8226
RXF 393 = tested on: RXF 393
SF-268 = tested on: SF-268
SF-295 = tested on: SF-295
SF-539 = tested on: SF-539
SK-MEL-28 = tested on: SK-MEL-28
SK-MEL-2 = tested on: SK-MEL-2
SK-MEL-5 = tested on: SK-MEL-5
SK-OV-3 = tested on: SK-OV-3
SN12C = tested on: SN12C
SNB-19 = tested on: SNB-19
SNB-75 = tested on: SNB-75
SR = tested on: SR
SW-620 = tested on: SW-620
T47D = tested on: T47D
TK-10 = tested on: TK-10
U-251 = tested on: U-251
UACC-257 = tested on: UACC-257
UACC-62 = tested on: UACC-62
UO-31 = tested on: UO-31
HL-60 = tested on: HL-60

## CC(C)(C)c1ccc(CN2CCN(C(c3ccccc3)c3ccc(Cl)cc3)CC2)cc1 (centres undefined)
786-0
  GI50: 42.4 µM (inactive)
A498
  GI50: > 100 µM (inactive)
A549
  GI50: 32.5 µM (inactive)
ACHN
  GI50: 68.5 µM (inactive)
BT-549
  GI50: > 100 µM (inactive)
CAKI-1
  GI50: > 100 µM (inactive)
COLO 205
  GI50: 38.8 µM (inactive)
DU-145
  GI50: > 100 µM (inactive)
EKVX
  GI50: 32.1 µM (inactive)
HCC 2998
  GI50: 31 µM (inactive)
HCT-116
  GI50: 25.7 µM (inactive)
HCT-15
  GI50: 29.9 µM
HOP-62
  GI50: > 100 µM (inactive)
HOP-92
  GI50: > 100 µM (inactive)
HT-29
  GI50: 20.3 µM (inactive)
Hs-578T
  GI50: > 100 µM (inactive)
IGROV-1
  GI50: > 100 µM (inactive)
K562
  GI50: 36.6 µM (inactive)
KM12
  GI50: 78 µM (inactive)
LOX IMVI
  GI50: 34.4 µM (inactive)
M14
  GI50: 33.4 µM (inactive)
MCF7
  GI50: 40.6 µM (inactive)
MDA-MB-231
  GI50: > 100 µM (inactive)
MDA-MB-435
  GI50: 57.9 µM (inactive)
MDA-N
  GI50: 49.4 µM (inactive)
MOLT-4
  GI50: 44.6 µM (inactive)
Malme-3M
  GI50: 45.6 µM (inactive)
NCI-H226
  GI50: 22.1 µM (inactive)
NCI-H23
  GI50: 83.6 µM (inactive)
NCI-H460
  GI50: 95.1 µM (inactive)
NCI-H522
  GI50: 23.4 µM (inactive)
NCI/ADR-RES
  GI50: > 100 µM (inactive)
OVCAR-3
  GI50: 58.7 µM (inactive)
OVCAR-4
  GI50: > 100 µM (inactive)
OVCAR-5
  GI50: 60.1 µM (inactive)
OVCAR-8
  GI50: > 100 µM (inactive)
PC-3
  GI50: 57.3 µM (inactive)
RPMI-8226
  GI50: 33.3 µM (inactive)
RXF 393
  GI50: 24.4 µM (inactive)
SF-268
  GI50: 77.6 µM (inactive)
SF-295
  GI50: 37.9 µM (inactive)
SF-539
  GI50: 30.3 µM (inactive)
SK-MEL-28
  GI50: 65.5 µM (inactive)
SK-MEL-2
  GI50: 31 µM (inactive)
SK-MEL-5
  GI50: 27 µM (inactive)
SK-OV-3
  GI50: > 100 µM (inactive)
SN12C
  GI50: > 100 µM (inactive)
SNB-19
  GI50: > 100 µM (inactive)
SNB-75
  GI50: > 100 µM (inactive)
SR
  GI50: 62.2 µM (inactive)
SW-620
  GI50: > 100 µM (inactive)
T47D
  GI50: 24.2 µM (inactive)
TK-10
  GI50: > 100 µM (inactive)
U-251
  GI50: 45.1 µM (inactive)
UACC-257
  GI50: 35.9 µM (inactive)
UACC-62
  GI50: > 100 µM (inactive)
UO-31
  GI50: 63.5 µM (inactive)

## O=C(Oc1ccc(S(=O)(=O)F)cc1F)c1ccccc1Cl
786-0
  GI50: 33.7 µM (inactive)
A498
  GI50: 57.5 µM (inactive)
A549
  GI50: 35.5 µM (inactive)
ACHN
  GI50: 56 µM (inactive)
BT-549
  GI50: 39.2 µM (inactive)
CAKI-1
  GI50: 64.9 µM (inactive)
COLO 205
  GI50: 19.5 µM (inactive)
DU-145
  GI50: 28.1 µM (inactive)
EKVX
  GI50: 24.4 µM (inactive)
HCC 2998
  GI50: 42.6 µM (inactive)
HCT-116
  GI50: 47.2 µM (inactive)
HCT-15
  GI50: 37.5 µM
HL-60
  GI50: 35.6 µM (inactive)
HOP-62
  GI50: 34.8 µM (inactive)
HOP-92
  GI50: 20.2 µM (inactive)
HT-29
  GI50: 27 µM (inactive)
Hs-578T
  GI50: 25.2 µM (inactive)
IGROV-1
  GI50: 30.8 µM (inactive)
K562
  GI50: 42.1 µM (inactive)
KM12
  GI50: 30.4 µM (inactive)
LOX IMVI
  GI50: 31.8 µM (inactive)
M14
  GI50: 30.8 µM (inactive)
MCF7
  GI50: 29.5 µM (inactive)
MDA-MB-231
  GI50: 23.8 µM (inactive)
MDA-MB-435
  GI50: 29.6 µM (inactive)
MDA-N
  GI50: 33.3 µM (inactive)
Malme-3M
  GI50: 31.8 µM (inactive)
NCI-H226
  GI50: 31 µM (inactive)
NCI-H23
  GI50: 23.9 µM (inactive)
NCI-H460
  GI50: 27.3 µM (inactive)
NCI-H522
  GI50: 18.3 µM (inactive)
NCI/ADR-RES
  GI50: 35.2 µM (inactive)
OVCAR-3
  GI50: 29.9 µM (inactive)
OVCAR-4
  GI50: 30.1 µM (inactive)
OVCAR-5
  GI50: 30.9 µM (inactive)
OVCAR-8
  GI50: 30.8 µM (inactive)
PC-3
  GI50: 37.8 µM (inactive)
RPMI-8226
  GI50: 21.1 µM (inactive)
RXF 393
  GI50: 21.3 µM (inactive)
SF-268
  GI50: 32.5 µM (inactive)
SF-295
  GI50: 32.1 µM (inactive)
SF-539
  GI50: 22.5 µM (inactive)
SK-MEL-28
  GI50: 74 µM (inactive)
SK-MEL-2
  GI50: 54.5 µM (inactive)
SK-MEL-5
  GI50: 16.2 µM (inactive)
SK-OV-3
  GI50: 98.9 µM (inactive)
SN12C
  GI50: 31.5 µM (inactive)
SNB-19
  GI50: 30.5 µM (inactive)
SNB-75
  GI50: 24.9 µM (inactive)
SR
  GI50: 24.5 µM (inactive)
SW-620
  GI50: 44.3 µM (inactive)
T47D
  GI50: 31.5 µM (inactive)
TK-10
  GI50: 43.1 µM (inactive)
U-251
  GI50: 35.2 µM (inactive)
UACC-257
  GI50: 27.6 µM (inactive)
UACC-62
  GI50: 33.6 µM (inactive)
UO-31
  GI50: 18.5 µM (inactive)
